# Experimental data from patent US20260022118A1, “HETEROCYCLIC COMPOUNDS AS NRAS INHIBITORS” (Board of Regents, The University of Texas System, priority 2023, published 2026).
# pIC50, pKd: −log10 of the molar value.
# Target: NRAS G12D C118S (Homo sapiens (Human), UniProt P01111, C118S/G12D)
# Assay: NRas G12D Surface Plasmon Resonance (SPR) binding assay
# Details: Avi-tagged biotinylated NRAS G12D C118S on streptavidin chip, 25° C., 1:1 kinetic or steady-state fit
# Protocol: NRas G12D Surface Plasmon Resonance (SPR) Binding Assay
# This Example illustrates that exemplary compounds and salts thereof described herein bind to NRAS G12D as measured by surface plasmon resonance (SPR).
# Two liters of 1.03× running buffer (1.03×HBS-P+pH 7.4, containing 0.0103 M HEPES, 0.1545 M NaCl, 0.0515% v/v Surfactant P20 (Cytiva®, BR100671); 5.15 mM MgCl2 (Invitrogen, AM9530G); 0.515 mM TCEP, pH 8.0 (GoldBio®, TCEP25)) was prepared and filter sterilized using a 0.22 μm filter. A 1-L volumetric flask was filled partway with this buffer. A 30-mL volumetric flask was used to measure 30 mL of 100% DMSO (Sigma Aldrich®, 41639-100ML) which was added to the 1-L flask. The solution in the 1-L flask was brought up to 1 L with 1.03× buffer, resulting in a 1.0× assay running buffer containing 1.0×HBS-P+, 5 mM MgCl2, […], and 3% DMSO. Remaining 1.03× buffer was used for preparation of samples and immobilization running buffer.
# Samples were prepared in a standard conical-bottomed 384-well microplate by adding 2 μL 10 mM DMSO cpd stock to each well, followed by 8 μL DMSO. A control compound was selected based off of its relatively “fast” kinetics that could be fitted by 1:1 kinetic fitting, as well as by steady-state fitting. Control wells for periodic injection to assess protein activity throughout the assay were also assembled, by diluting 10 mM compound 1:30 in DMSO, then adding 20 μL to the appropriate wells, such that the final concentration of compound would be 10 μM, and the final concentration of DMSO would be 3%. A Biomek™ FXP Laboratory Automation Workstation was used to stamp 20 μL DMSO into all sample wells—minus the control wells—according to the plate map, and then serially dilute 1:3 by mixing and aspirating 10 μL, delivering into the 20 μL of DMSO in the next well, resulting in 10-point serial dilution curves. A Biotek™ Multiflo EL406 Washer Dispenser was used to deliver 80 μL of 1.03× buffer to the compound plate. The plate was mixed 10× by FX, then a final dilution was performed by stamping 18 μL from the compound plate into a 384-well deep-well plate that had also been previously filled with 102 μL 1.03× buffer via the Multiflo. The solution in the deep-well plate was mixed 10× by FX, then sealed with a 384-well microplate foil from Cytiva® (Cytiva® BR100577) and placed on an orbital shaker for 30 minutes at 1000 RPM to ensure complete mixing of the DMSO solution in the buffer. A solvent correction curve was also prepared by making a 4% DMSO solution in 1.03× buffer and diluting in 1.03× buffer such that there were eight solutions of decreasing DMSO concentrations resulting in a high DMSO concentration of 4% and a low concentration of 2% DMSO.
# Immobilization running buffer was prepared in a 200-mL volume by diluting 1.03× running buffer prepared above to 1.0×. A Cytiva® Streptavidin chip (Cytiva®, 29104992) was docked into a Biacore™ S200 instrument, and the instrument was then primed three times into the immobilization running buffer. A protein stock of Avi-tagged NRAS G12D C118S was prepared in-house and biotinylated using the Bulk BirA: BirA biotin-protein ligase bulk reaction kit from Avidity (Avidity®, Bulk BirA). Upon completion of the biotinylation reaction, Amicon® ultra 0.5-mL Centrifugal Filters with a MWCO of 3 k Da (Millipore® UFC500396) were used to reduce the free biotin concentration below 0.1 μM in the protein sample over the course of eight desalting cycles, according to the manufacturer's protocol. Resulting protein concentration was not measured directly as an accurate protein concentration is not required for immobilizing protein on the chip surface; however, a theoretical yield of ≤1.5 mg/mL was estimated based off of retained volumes during the desalting process. Reagents for immobilization were prepared as instructed in the Biacore™ 5200 Control Software Immobilization Wizard, including solutions of 1 M NaCl in 50 mM NaOH, and 1 M NaCl in 50 mM NaOH and 50% isopropyl alcohol. […]
# Chain of NRAS G12D C118S (P01111 whole entry G12D/C118S): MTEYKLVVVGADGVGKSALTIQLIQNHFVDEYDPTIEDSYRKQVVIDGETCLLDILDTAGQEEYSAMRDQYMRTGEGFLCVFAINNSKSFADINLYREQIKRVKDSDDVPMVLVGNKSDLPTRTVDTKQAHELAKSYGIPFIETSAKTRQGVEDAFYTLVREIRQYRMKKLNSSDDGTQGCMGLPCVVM
row,Structure (SMILES),pKd
1,"C#Cc1c(F)ccc2cc(O)cc(-c3ncc4c([C@H]5[C@@H]6CNC[C@@H]65)cn(C)c4c3F)c12 [Example 2, 4-(3-((1R,5S,6S)-3-azabicyclo[3.1.0]hexan-6-yl)-7-fluoro-1-methyl-1H-pyrrolo[3,2-c]pyridin-6-yl)-5-ethynyl-6-fluoronaphthalen-2-ol 2,2,2-trifluoroacetate]",7.28
2,"C#Cc1c(F)ccc2cc(O)cc(-c3cc4c(cn3)c(N3CC5CCC(C3)N5)nn4CC)c12 [Example 6, 4-(3-(3,8-diazabicyclo[3.2.1]octan-3-yl)-1-ethyl-1H-pyrazolo[4,3-c]pyridin-6-yl)-5-ethynyl-6-fluoronaphthalen-2-ol]",5.09
3,"C#Cc1c(F)ccc2cc(O)cc(-c3cc4c(cn3)c(N3CC5CCC(C3)N5)nn4CCC)c12 [Example 7, 4-(3-(3,8-diazabicyclo[3.2.1]octan-3-yl)-1-propyl-1H-pyrazolo[4,3-c]pyridin-6-yl)-5-ethynyl-6-fluoronaphthalen-2-ol]",5.32
4,"C#Cc1c(F)ccc2cc(O)cc(-c3ncc4c(C5=CC6CCC(C5)N6)nn(CC)c4c3F)c12 (stereo not drawn) [Example 9, 4-(3-(8-azabicyclo[3.2.1]oct-2-en-3-yl)-1-ethyl-7-fluoro-1H-pyrazolo[4,3-c]pyridin-6-yl)-5-ethynyl-6-fluoronaphthalen-2-ol]",4.79
5,"C#Cc1c(F)ccc2cc(O)cc(-c3ncc4c(N5CCNCC5)nn(CC)c4c3F)c12 [Example 10, 4-(1-ethyl-7-fluoro-3-(piperazin-1-yl)-1H-pyrazolo[4,3-c]pyridin-6-yl)-5-ethynyl-6-fluoronaphthalen-2-ol]",4.41
6,"C#Cc1c(F)ccc2cc(O)cc(-c3ncc4c(N[C@H]5[C@@H]6CNC[C@@H]65)nn(CC)c4c3F)c12 [Example 11, 4-(3-(((1R,5S,6s)-3-azabicyclo[3.1.0]hexan-6-yl)amino)-1-ethyl-7-fluoro-1H-pyrazolo[4,3-c]pyridin-6-yl)-5-ethynyl-6-fluoronaphthalen-2-ol]",4.51
7,"C#Cc1c(F)ccc2cc(O)cc(-c3ncc4c(NCC5(N(C)C)CCC5)nn(CC)c4c3F)c12 [Example 12, 4-(3-(((1-(dimethylamino)cyclobutyl)methyl)amino)-1-ethyl-7-fluoro-1H-pyrazolo[4,3-c]pyridin-6-yl)-5-ethynyl-6-fluoronaphthalen-2-ol]",5.08
8,"C#Cc1c(F)ccc2cc(O)cc(-c3ncc4c(N5CC6CCC(C5)N6)nn(CCC)c4c3F)c12 [Example 14, 4-(3-(3,8-diazabicyclo[3.2.1]octan-3-yl)-7-fluoro-1-propyl-1H-pyrazolo[4,3-c]pyridin-6-yl)-5-ethynyl-6-fluoronaphthalen-2-ol]",5.36
9,"C#Cc1c(F)ccc2cc(O)cc(-c3ncc4c(N5CC6CCC(C5)N6)nn(CC5CCOC5)c4c3F)c12 (stereo not drawn) [Example 15, 4-(3-(3,8-diazabicyclo[3.2.1]octan-3-yl)-7-fluoro-1-((tetrahydrofuran-3-yl)methyl)-1H-pyrazolo[4,3-c]pyridin-6-yl)-5-ethynyl-6-fluoronaphthalen-2-ol]",5.22
10,"C#Cc1c(F)ccc2cc(O)cc(-c3ncc4c(N5CC6CCC(C5)N6)nn(C5CCC5)c4c3F)c12 [Example 16, 4-(3-(3,8-diazabicyclo[3.2.1]octan-3-yl)-1-cyclobutyl-7-fluoro-1H-pyrazolo[4,3-c]pyridin-6-yl)-5-ethynyl-6-fluoronaphthalen-2-ol]",5.25
11,"C#Cc1c(F)ccc2cc(O)cc(-c3ncc4c(N5CC6CCC(C5)N6)n[nH]c4c3F)c12 [Example 17, 4-(3-(3,8-diazabicyclo[3.2.1]octan-3-yl)-7-fluoro-1H-pyrazolo[4,3-c]pyridin-6-yl)-5-ethynyl-6-fluoronaphthalen-2-ol]",4.51

# Tested on: THP-1 cells expressing G12D (NRAS G12D)
# Assay: Inhibition of NRAS G12D-mediated phosphorylation of ERK (AlphaLISA p-ERK1/2) in THP-1 cells
# Assay type: cell-based
# Details: Homo sapiens, THP-1, 2 h, 2 hours incubation, HBSS with 0% or 10% FBS, p-ERK1/2 (Thr202/Tyr204) AlphaLISA, read-out: pERK THP-1 IC50
# Protocol: Inhibition of NRAS G12D-Mediated Phosphorylation of ERK by Exemplary Compounds of Formulas I, II, and III.
# This Example illustrates that exemplary compounds and salts thereof described herein inhibit the phosphorylation of ERK downstream of NRAS G12D.
# THP-1 cells (ATCC TIB-202) expressing G12D were maintained in RPMI-1640 medium supplemented with 10% fetal bovine serum (FBS), 0.05 mM 2-mercaptoethanol, and penicillin/streptomycin. Cells (20,000/well) were seeded onto a 384 well plate in 20 μL of HBSS supplemented with 0% or 10% FBS. Cells were incubated in the absence or presence of various concentrations of test compound (final 1% DMSO) for 2 hours. p-ERK expression was assessed using the AlphaLISA SureFire Ultra p-ERK1/2 (Thr202/Tyr204) (PerkinElmer®, ALSU-PERK-A10K) following manufacturer recommendation. Plates were read on a PerkinElmer® Envision Multimode plate reader. Dose-response curves were analyzed using IC50 regression curve fitting (GeneData Screener). Curves were plotted as a percent control and normalized by high controls without inhibitor (100%), and low controls (0%) containing 1 μM of trametinib, a potent MEK inhibitor.
row,pIC50,Structure (SMILES)
1,5.03,"C#Cc1c(F)ccc2cc(O)cc(-c3ncc4c(NCCN)nn(C)c4c3F)c12 [Example 93, 4-(3-((2-aminoethyl)amino)-7-fluoro-1-methyl-1H-pyrazolo[4,3-c]pyridin-6-yl)-5-ethynyl-6-fluoronaphthalen-2-ol]"
2,< 5.00,"C#Cc1c(F)ccc2cc(O)cc(-c3ncc4c(C5[C@H]6CNC[C@@H]56)nn5c4c3OCC5)c12 (stereo partly drawn) [Example 94, 4-[3-[(1S,5R)-3-azabicyclo[3.1.0]hexan-6-yl]-9-oxa-1,2,6-triazatricyclo[6.3.1.04,12]dodeca-2,4,6,8(12)-tetraen-7-yl]-5-ethynyl-6-fluoro-naphthalen-2-ol]"
3,5.03,"C#Cc1c(F)ccc2cc(O)cc(-c3ncc4c(C5[C@H]6CNC[C@@H]56)nc(C)n4c3F)c12 (stereo partly drawn) [Example 98, 4-[1-(3-azabicyclo[3.1.0]hexan-6-yl)-5-fluoro-3-methyl-imidazo[1,5-a]pyrazin-6-yl]-5-ethynyl-6-fluoro-naphthalen-2-ol]"
4,< 5.00,"C#Cc1c(F)ccc2cc(O)cc(-c3ncc4c([C@H]5[C@@H]6CNC(COC)[C@@H]65)nn(C5CC5)c4c3F)c12 (stereo partly drawn) [Example 99, 4-(1-cyclopropyl-7-fluoro-3-((1S,5R,6S)-2-(methoxymethyl)-3-azabicyclo[3.1.0]hexan-6-yl)-1H-pyrazolo[4,3-c]pyridin-6-yl)-5-ethynyl-6-fluoronaphthalen-2-ol]"
5,< 5.00,"C#Cc1c(F)ccc2cc(O)cc(-c3ncc4c(N5C[C@@H]6CC[C@H]5CN6)nn(C5CC5)c4n3)c12 [Example 101, 4-(3-((1S,4S)-2,5-diazabicyclo[2.2.2]octan-2-yl)-1-cyclopropyl-1H-pyrazolo[3,4-d]pyrimidin-6-yl)-5-ethynyl-6-fluoronaphthalen-2-ol]"
6,< 5.00,"C#Cc1c(F)ccc2cc(O)cc(-c3ncc4c(N5C[C@@H]6CC[C@H]5CN6)c(C)n(C)c4c3F)c12 [Example 107, 4-(3-((1S,4S)-2,5-diazabicyclo[2.2.2]octan-2-yl)-7-fluoro-1,2-dimethyl-1H-pyrrolo[3,2-c]pyridin-6-yl)-5-ethynyl-6-fluoronaphthalen-2-ol]"

row,Structure (SMILES),pIC50
1,"C#Cc1c(F)ccc2cc(O)cc(-c3nc4c5c(nn(C)c5c3F)N3C[C@H]5CC[C@H](N5)[C@H]3CO4)c12 [Example 95, 5-ethynyl-6-fluoro-4-[(4R,7S,8S)-14-fluoro-16-methyl-10-oxa-2,12,16,17,19-pentazapentacyclo[9.6.1.14,7.02,8.015,18]nonadeca-1(17),11(18),12,14-tetraen-13-yl]naphthalen-2-ol]",< 5.00
